These results are taken from PMC5911928 (European journal of medicinal chemistry, 2017).

The structures appear in SMILES notation. In brackets after ≈: the same amount, converted by molar mass.

Series [1] can be described thus: Human microsomal stability analysis. The format is in vitro ADME. As to conditions: human liver microsomes. For orientation: Microsomes from liver hold many membrane-bound enzymes, among them those of drug oxidation.
The test system of series [2] is MRSA USA400. Put plainly: Time-kill assay. As to conditions: 4 × MIC, MRSA USA400, 37 °C, 24-hour incubation.
In series [3] the test system is MRSA USA400 inside infected murine macrophage (J774) cells. Put plainly: Eradication of intracellular MRSA in infected macrophages. As to conditions: 16 μg/mL, J774 cells infected with MRSA USA400.
Series [4] relates to HaCaT cells. Put plainly: MTS cytotoxicity analysis against human keratinocytes. The series is classed as cell-based. The conditions noted are these: MTS assay, tested at 8, 16, 32, 64 μg/mL.
For series [5], the system named is MRSA USA300. Description: In vivo antibacterial activity in MRSA-infected C. elegans. The conditions noted are these: for reduction of the burden of MRSA USA300: C. elegans AU37, 20 μg/mL, 18 hours treatment. Details: species or system Caenorhabditis elegans.
For series [6], the system named is UDP-N-acetylmuramyl pentapeptide in S. aureus NRS107 (RN4220). Put plainly: Detection of final soluble cell wall precursor by HPLC/MS. The series is classed as cell-based, Staphylococcus aureus. As to conditions: 10 × MIC, 30 minutes.
Series [7] concerns drug-resistant S. aureus clinical isolates. Put plainly: Anti-MRSA activity over the panel of S. aureus clinical isolates. The series is classed as cell-based, Staphylococcus aureus. The conditions noted are these: against both MRSA and VRSA.
Series [8] deals with B. subtilis. Description: Bacterial Cytological Profiling. The series is classed as cell-based, Bacillus subtilis. As to conditions: for cell shape (BCP) in media containing MSM: LB-MSM, two hours, 4i 4 × MIC, oxacillin 5×MIC, D-cycloserine 1×MIC.
The subject of series [9] is J774 cells. Put plainly: MTS cytotoxicity analysis against murine macrophages. The series is classed as cell-based. As to conditions: MTS assay, tested at 8, 16, 32, 64 μg/mL.
The subject of series [10] is VRSA10. Put plainly: MIC/MBC broth microdilution. The format is cell-based. The conditions noted are these: Staphylococcus aureus.
Series [11] deals with S. aureus NRS107 (RN4220). Put plainly: microbe, parasite or virus in culture. The series is classed as cell-based. The conditions noted are these: Staphylococcus aureus.
In series [12] the test system is VRSA4. Description: MIC/MBC broth microdilution. The series is classed as cell-based. As to conditions: Staphylococcus aureus.
Series [13] concerns B. subtilis. Description: MIC against B. subtilis. The series is classed as cell-based. As to conditions: Bacillus subtilis.
Setting [14] is: pH 7.4, NADPH-Free CLint, without NADPH.

The microsomal CLint is the capacity of the preparation to metabolise the compound, expressed as a volume cleared per time. Read a high microsomal CLint as rapid turnover.

With `CCCCc1ccc(-c2nc(C)c(/C(C)=N/NC(=N)N)s2)cc1` [Compound 1a, reference compound], in series [1] (setting [14]), the microsomal CLint is < 9.6 µL/min/mg.

Turning to `Cc1nc(-c2ccc3ccccc3c2)sc1-c1cnc(NC(=N)N)s1` [Compound 4i, 1-(4′-Methyl-2′-(naphthalen-2-yl)-[5,5′-bithiazol]-2-yl)guanidine], the “time to completely eliminate MRSA cells” value in series [2] is on record as “four”. The “reduction of MRSA CFU/mL in infected macrophages” value in series [3] (four hours of treatment) is “unable to reduce”. Also, in [4], the “concentration up to which not toxic” value is 32000 ng/mL. Also, in series [5], the “reduction of the burden of MRSA USA300” value was “approximately 30%”. Further, in series [5] (C. elegans, 20 μg/mL, 18 hours, same experimental conditions), the “reduction of MRSA burden relative to lead compound 1c and vancomycin” value was “three”. The intrinsic clearance (microsomal CLint) in [1] (pH 7.4, NADPH-Dependent CLint, with NADPH) was 17.3 µL/min/mg; in series [1] (setting [14]) it was < 9.6 µL/min/mg. The “peak of UDP-N-acetylmuramyl pentapeptide (accumulation)” value in series [6] is on record as “noticeable increase”. In series [7], the “MBC values relative to MIC values” is given as “matched or were two-fold higher”. In addition, the “effect on cells (BCP)” value in series [8] (5 × MIC, two hours of exposure) was “lysed”. The “cell shape (BCP) in media containing MSM” value in [8] is “misshapen and formed small bulges”. Also, the “concentration up to which non-toxic” value in series [9] amounted to 16000 ng/mL.

For the compound `CC(=O)NC[C@H]1CN(c2ccc(N3CCOCC3)c(F)c2)C(=O)O1` [Linezolid], the MIC in series [10], in series [11] and in series [12] was 2 µg/mL (≈ 5.93 µM) each time.

`Cc1onc(-c2ccccc2Cl)c1C(=O)N[C@@H]1C(=O)N2[C@@H]1SC(C)(C)[C@@H]2C(=O)O` [cloxacillin] returned an MIC in [13] of 0.47 µg/mL (≈ 1.08 µM).

Take `CN[C@H](CC(C)C)C(=O)N[C@H]1C(=O)N[C@@H](CC(N)=O)C(=O)N[C@H]2C(=O)N[C@H]3C(=O)N[C@H](C(=O)N[C@H](C(=O)O)c4cc(O)cc(O)c4-c4cc3ccc4O)[C@H](O)c3ccc(c(Cl)c3)Oc3cc2cc(c3O[C@@H]2O[C@H](CO)[C@@H](O)[C@H](O)[C@H]2O[C@H]2C[C@](C)(N)[C@H](O)[C@H](C)O2)Oc2ccc(cc2Cl)[C@H]1O` [Vancomycin, reference compound]: the “reduction of MRSA CFU in infected macrophages” value in series [3] (24 hours of treatment) was “not able to reduce”. For the same compound, the “reduction of the burden of MRSA USA300” value in series [5] is listed as “low reduction”. For the same compound, in series [6], the “peak of UDP-N-acetylmuramyl pentapeptide (accumulation)” value is “noticeable increase”.

For `N[C@@H]1CONC1=O` [ᴅ-cycloserine], in [13], the MIC was 37.5 µg/mL (≈ 367 µM).

In the case of `Cc1onc(-c2ccccc2)c1C(=O)N[C@@H]1C(=O)N2[C@@H]1SC(C)(C)[C@@H]2C(=O)O` [oxacillin, reference compound], the “cell shape (BCP) in media containing MSM” value in [8] is “large bulges and misshapen cells”.
